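Tested at 5 concentrations; 48 h exposure; 96-well plates; endpoints linearly interpolated, else capped at highest concentration. The concentration for 50% growth inhibition is given as GI50.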 Calls of active or inactive are those of the source. No stated cut-off is given here; in the data, active = GI50 up to about 1.1 µM and inactive = higher.
Legend:
Experiment in all cases: inhibition of tumour cell growth, NCI panel, 48 h
[1] = test system: SF-295
[2] = test system: DLD-1
[3] = test system: SK-OV-3
[4] = test system: M19-MEL
[5] = test system: TK-10
[6] = test system: NCI-H460
[7] = test system: NCI-H522
[8] = test system: EKVX
[9] = test system: UO-31
[10] = test system: OVCAR-4
[11] = test system: NCI-H23
[12] = test system: OVCAR-8
[13] = test system: KM12
[14] = test system: SK-MEL-2
[15] = test system: KM-20L2
[16] = test system: IGROV-1
[17] = test system: XF498
[18] = test system: CCRF-CEM
[19] = test system: DMS-114
[20] = test system: A549
[21] = test system: COLO 205
[22] = test system: CAKI-1
[23] = test system: SW-620
[24] = test system: SF-268
[25] = test system: SK-MEL-28
[26] = test system: HOP-62
[27] = test system: U-251
[28] = test system: OVCAR-3
[29] = test system: UACC-257
[30] = test system: K562
[31] = test system: OVCAR-5
[32] = test system: SNB-19
[33] = test system: SK-MEL-5
[34] = test system: M14
[35] = test system: A498
[36] = test system: RPMI-8226
[37] = test system: SN12C
[38] = test system: MOLT-4
[39] = test system: LXFL 529
[40] = test system: HT-29
[41] = test system: SNB-75
[42] = test system: HCC 2998
[43] = test system: 786-0
[44] = test system: ACHN
[45] = test system: SNB-78
[46] = test system: UACC-62
[47] = test system: Malme-3M
[48] = test system: DMS-273
[49] = test system: HCT-116
[50] = test system: LOX IMVI
[51] = test system: NCI-H226
[52] = test system: SF-539
[53] = test system: HL-60
[54] = test system: RXF 393
[55] = test system: HCT-15
[56] = test system: HOP-92

Q: Which GI50 [1] does the source give for COc1ccc(OC)c(CCc2cc(OC)c(OC)cc2C)c1 here?
A: 6.89 µM (inactive)

Q: And the GI50 [2]?
A: 4.7 µM (inactive)

Q: What about the GI50 [3] of the same compound?
A: 23 µM (inactive)

Q: And the GI50 [4]?
A: 5.51 µM (inactive)

Q: And the GI50 [5]?
A: 89.7 µM (inactive)

Q: What about the GI50 [6] of the same compound?
A: 34.2 µM (inactive)

Q: What about the GI50 [7] of the same compound?
A: 3.65 µM (inactive)

Q: What about the GI50 [8] of the same compound?
A: 84.9 µM (inactive)

Q: And the GI50 [9]?
A: 30.1 µM (inactive)

Q: What about the GI50 [10] of the same compound?
A: 8.2 µM (inactive)

Q: What about the GI50 [11] of the same compound?
A: 32.1 µM (inactive)

Q: And the GI50 [12]?
A: 48.5 µM (inactive)

Q: And the GI50 [13]?
A: 0.63 µM (active)

Q: And the GI50 [14]?
A: 6.68 µM (inactive)

Q: And the GI50 [15]?
A: 49.8 µM (inactive)

Q: And the GI50 [16]?
A: 8.47 µM (inactive)

Q: What about the GI50 [17] of the same compound?
A: 77.6 µM (inactive)

Q: And the GI50 [18]?
A: 11 µM (inactive)

Q: What about the GI50 [19] of the same compound?
A: 5.65 µM (inactive)

Q: What about the GI50 [20] of the same compound?
A: 29.3 µM (inactive)

Q: What about the GI50 [21] of the same compound?
A: 33.4 µM (inactive)

Q: And the GI50 [22]?
A: 52 µM (inactive)

Q: And the GI50 [23]?
A: 5.6 µM (inactive)

Q: What about the GI50 [24] of the same compound?
A: 42 µM (inactive)

Q: What about the GI50 [25] of the same compound?
A: 9.38 µM (inactive)

Q: And the GI50 [26]?
A: 49.1 µM (inactive)

Q: What about the GI50 [27] of the same compound?
A: 43.4 µM (inactive)

Q: And the GI50 [28]?
A: 3.05 µM (inactive)

Q: What about the GI50 [29] of the same compound?
A: 26.7 µM (inactive)

Q: What about the GI50 [30] of the same compound?
A: 3.64 µM (inactive)

Q: And the GI50 [31]?
A: > 100 µM (inactive)

Q: What about the GI50 [32] of the same compound?
A: 92.7 µM (inactive)

Q: What about the GI50 [33] of the same compound?
A: 1.62 µM (inactive)

Q: What about the GI50 [34] of the same compound?
A: 4.26 µM (inactive)

Q: What about the GI50 [35] of the same compound?
A: > 100 µM (inactive)

Q: What about the GI50 [36] of the same compound?
A: 14.4 µM (inactive)

Q: What about the GI50 [37] of the same compound?
A: 81.3 µM (inactive)

Q: And the GI50 [38]?
A: 12.1 µM (inactive)

Q: And the GI50 [39]?
A: 30.1 µM (inactive)

Q: And the GI50 [40]?
A: 28.4 µM (inactive)

Q: And the GI50 [41]?
A: 16.8 µM (inactive)

Q: What about the GI50 [42] of the same compound?
A: 27.5 µM (inactive)

Q: And the GI50 [43]?
A: 38.7 µM (inactive)

Q: What about the GI50 [44] of the same compound?
A: > 100 µM (inactive)

Q: And the GI50 [45]?
A: 7.52 µM (inactive)

Q: What about the GI50 [46] of the same compound?
A: 25.2 µM (inactive)

Q: And the GI50 [47]?
A: 4.2 µM (inactive)

Q: What does the source list for Cc1cnc(-c2ccccc2)o1?
A: GI50 [48]: 52.6 µM (inactive); GI50 [2]: > 100 µM (inactive); GI50 [49]: > 100 µM (inactive); GI50 [6]: > 100 µM (inactive); GI50 [7]: > 100 µM (inactive); GI50 [50]: > 100 µM (inactive); GI50 [10]: > 100 µM (inactive); GI50 [11]: > 100 µM (inactive); GI50 [15]: > 100 µM (inactive); GI50 [18]: > 100 µM (inactive); GI50 [51]: > 100 µM (inactive); GI50 [25]: > 100 µM (inactive); GI50 [26]: > 100 µM (inactive); GI50 [27]: > 100 µM (inactive); GI50 [30]: > 100 µM (inactive); GI50 [32]: > 100 µM (inactive); GI50 [34]: > 100 µM (inactive); GI50 [52]: > 100 µM (inactive); GI50 [36]: > 100 µM (inactive); GI50 [37]: > 10 µM (inactive); GI50 [38]: > 100 µM (inactive); GI50 [39]: > 100 µM (inactive); GI50 [53]: > 100 µM (inactive); GI50 [41]: > 100 µM (inactive); GI50 [42]: > 100 µM (inactive); GI50 [54]: > 100 µM (inactive); GI50 [43]: > 100 µM (inactive); GI50 [45]: > 100 µM (inactive)

Q: Which GI50 [48] does the source give for CCOC(=O)C(C#N)(Cc1c[nH]c2ccccc12)NC(C)=O (centres undefined) here?
A: > 100 µM (inactive)

Q: What about the GI50 [1] of the same compound?
A: > 100 µM (inactive)

Q: And the GI50 [2]?
A: > 100 µM (inactive)

Q: What about the GI50 [3] of the same compound?
A: > 100 µM (inactive)

Q: What about the GI50 [4] of the same compound?
A: > 100 µM (inactive)

Q: And the GI50 [49]?
A: > 100 µM (inactive)

Q: What about the GI50 [5] of the same compound?
A: > 100 µM (inactive)

Q: And the GI50 [6]?
A: > 100 µM (inactive)

Q: What about the GI50 [7] of the same compound?
A: > 100 µM (inactive)

Q: And the GI50 [8]?
A: > 100 µM (inactive)

Q: And the GI50 [9]?
A: > 100 µM (inactive)

Q: And the GI50 [50]?
A: > 100 µM (inactive)

Q: And the GI50 [10]?
A: > 100 µM (inactive)

Q: And the GI50 [11]?
A: > 100 µM (inactive)

Q: And the GI50 [12]?
A: > 100 µM (inactive)

Q: And the GI50 [13]?
A: > 100 µM (inactive)

Q: And the GI50 [14]?
A: > 100 µM (inactive)

Q: And the GI50 [15]?
A: > 100 µM (inactive)

Q: And the GI50 [16]?
A: > 100 µM (inactive)

Q: And the GI50 [18]?
A: > 100 µM (inactive)

Q: What about the GI50 [19] of the same compound?
A: > 100 µM (inactive)

Q: What about the GI50 [21] of the same compound?
A: > 100 µM (inactive)

Q: What about the GI50 [51] of the same compound?
A: > 100 µM (inactive)

Q: What about the GI50 [55] of the same compound?
A: > 100 µM

Q: And the GI50 [22]?
A: > 100 µM (inactive)

Q: What about the GI50 [23] of the same compound?
A: > 100 µM (inactive)

Q: And the GI50 [24]?
A: > 100 µM (inactive)

Q: What about the GI50 [25] of the same compound?
A: > 100 µM (inactive)

Q: What about the GI50 [26] of the same compound?
A: > 100 µM (inactive)

Q: And the GI50 [27]?
A: > 100 µM (inactive)

Q: What about the GI50 [28] of the same compound?
A: > 100 µM (inactive)

Q: And the GI50 [29]?
A: > 100 µM (inactive)

Q: What about the GI50 [30] of the same compound?
A: > 100 µM (inactive)

Q: And the GI50 [31]?
A: > 100 µM (inactive)

Q: What about the GI50 [33] of the same compound?
A: > 100 µM (inactive)

Q: What about the GI50 [34] of the same compound?
A: > 100 µM (inactive)

Q: And the GI50 [36]?
A: > 100 µM (inactive)

Q: What about the GI50 [37] of the same compound?
A: > 100 µM (inactive)

Q: And the GI50 [38]?
A: > 100 µM (inactive)

Q: What about the GI50 [39] of the same compound?
A: > 100 µM (inactive)

Q: What about the GI50 [40] of the same compound?
A: > 100 µM (inactive)

Q: What about the GI50 [53] of the same compound?
A: > 100 µM (inactive)

Q: And the GI50 [41]?
A: > 100 µM (inactive)

Q: And the GI50 [42]?
A: > 100 µM (inactive)

Q: What about the GI50 [54] of the same compound?
A: > 100 µM (inactive)

Q: And the GI50 [44]?
A: > 100 µM (inactive)

Q: What about the GI50 [56] of the same compound?
A: > 100 µM (inactive)

Q: What about the GI50 [46] of the same compound?
A: > 100 µM (inactive)

Q: And the GI50 [47]?
A: > 100 µM (inactive)

— ChEMBL document CHEMBL1201862, “PubChem BioAssay data set” (2004)
